According to article PMC2872082 (Journal of the American Chemical Society, 2010):

Target: T1, MshA (CgMshA) (Corynebacterium glutamicum, UniProt Q8NTA6)
T1 sequence (Q8NTA6 1-418): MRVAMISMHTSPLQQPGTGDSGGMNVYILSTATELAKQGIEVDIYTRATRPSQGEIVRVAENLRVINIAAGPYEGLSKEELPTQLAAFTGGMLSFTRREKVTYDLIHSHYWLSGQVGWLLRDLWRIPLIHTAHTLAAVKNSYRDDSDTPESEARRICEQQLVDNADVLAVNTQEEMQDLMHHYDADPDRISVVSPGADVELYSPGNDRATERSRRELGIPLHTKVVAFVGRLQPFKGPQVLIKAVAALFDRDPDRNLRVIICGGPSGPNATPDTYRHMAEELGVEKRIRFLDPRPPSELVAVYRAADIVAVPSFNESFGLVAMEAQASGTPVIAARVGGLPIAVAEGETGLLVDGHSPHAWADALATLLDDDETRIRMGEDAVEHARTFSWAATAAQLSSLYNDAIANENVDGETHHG
Assay: steady-state enzyme inhibition kinetics and slow-binding progress curves
Assay type: biochemical

Ki: 1400 ± 200 nM
Compound: CC(=O)N[C@H]1[C@@H](OP(=O)(O)OP(=O)(O)OC[C@H]2O[C@@H](n3ccc(=O)[nH]c3=O)[C@H](O)[C@@H]2O)O[C@](F)(CO)[C@@H](O)[C@@H]1O [UDP-(5F)-GlcNAc]
